According to publication PMC4456360, “A Recombinant Fungal Lectin for Labeling Truncated Glycans on Human Cancer Cells” (PLoS ONE, 2015):
Where “and” joins values, the source holds several entries; their conditions need not be identical. Equal entries are not always repeated. Marks after values point to notes of the source that are not given here.

Assays:
rPVL [1] = target: T1, rPVL (Lacrymaria velutina (Psathyrella velutina), UniProt Q309D1); assay: Titration microcalorimetry (ITC), rPVL in solution; type: binding; settings: for ITC -∆H / ITC T∆S / ITC n (number of binding sites per monomer) / Kd: 25°C; for Kd: rPVL in solution; for ITC n: stoichiometry value fixed during fitting procedure
T1 sequence (Q309D1 1-395): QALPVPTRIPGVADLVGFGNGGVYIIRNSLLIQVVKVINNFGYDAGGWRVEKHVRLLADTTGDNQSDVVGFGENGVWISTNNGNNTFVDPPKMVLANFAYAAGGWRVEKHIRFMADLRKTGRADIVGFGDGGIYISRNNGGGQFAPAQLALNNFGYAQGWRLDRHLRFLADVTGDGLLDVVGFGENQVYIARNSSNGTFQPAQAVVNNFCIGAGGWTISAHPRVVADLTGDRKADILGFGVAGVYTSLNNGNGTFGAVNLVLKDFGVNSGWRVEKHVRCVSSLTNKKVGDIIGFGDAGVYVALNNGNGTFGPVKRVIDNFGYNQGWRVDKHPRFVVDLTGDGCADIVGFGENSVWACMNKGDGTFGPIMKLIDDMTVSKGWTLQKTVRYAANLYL
Experimental: Recombinant lyophilized rPVL was dissolved in buffer (20 mM Tris/HCl, pH 7.5, NaCl 150 mM, 100 μM CaCl2) and degassed. The protein concentration was checked by measuring A280 by using a theoretical molar extinction coefficient of 65,890 M^-1 cm^-1. Carbohydrate ligands were dissolved in the same buffer, degassed, and loaded in the injection syringe. ITC was performed with a ITC200 microcalorimeter (GE Healthcare). The rPVL solution was placed in a 200 μl sample cell at 25°C. Titration was performed with 20 injections of 2 μl carbohydrate ligands every 120 s. The experimental data were fitted to a theoretical titration curve using Origin software supplied by GE Healthcare, with ΔH (enthalpy change), Ka (association constant) and n (number of binding sites per monomer) as adjustable parameters. Free energy change (ΔG) and entropy contributions (TΔS) were derived from the equation ΔG = ΔH – TΔS = —RT ln Ka (with T as the absolute temperature and R = 8.314 J mol^-1 K^-1). Two independent titrations were performed for each tested ligand.

rPVL [2] = target: T1, rPVL; assay: Surface plasmon resonance, oligosaccharides injected over rPVL-coated CM5 chip; type: binding; settings: 25°C, rPVL immobilized on chip; for Kd: read-out: SPR Kd
Experimental: All SPR experiments were performed on a Biacore X100 instrument (GE Healthcare) at 25°C in HBS (10 mM Hepes/NaOH, pH 7.5, 150 mM NaCl, 0.05% Tween 20) supplemented with 100 μM of CaCl2 at a flow rate of 30 μl min^-1. Binding was measured as resonance units over time after blank subtraction, and data were then evaluated by using the Biacore X100 evaluation software, version 2.0. Dissociation constants were determined by plotting response at equilibrium (Req, 10 s before the end of injection) against analyte concentration. For protein coated chip, 3500 resonance units of rPVL (100 μg ml^-1, 10 mM acetate buffer pH 6.2) have been immobilized on flow channel 2 of a research grade CM5 chip using standard amine coupling procedures. Flow channel 1 has been activated/deactivated. Experiments consist of injection (association 360 s, dissociation 400 s) of various concentrations of oligosaccharides (2 fold cascade dilutions, from 0 to 10 μM) on both channels.

rPVL [3] = target: T1, rPVL; assay: Glycan array (CFG Mammalian Printed Array version 5.1); type: binding; settings: Alexa Fluor 488 labeled rPVL
Text: Purified rPVL were labeled with Alexa Fluor 488 (Invitrogen) according to the manufacturer’s instructions and repurified on a D-Salt polyacrylamide desalting column (Pierce). Alexa-labeled rPVL was used for glycan array screening with the standard procedure of the Protein-Glycan Interaction Core (H) of the Consortium for Functional Glycomics.

native PVL = target: native PVL; set-up: method as in PMID 16497330; settings: ITC, native PVL isolated from mushroom; cited from earlier work
rPVL [4] = target: T1, rPVL; assay: Thermal shift analysis of rPVL with glycan ligands; type: binding
Experimental: Thermal shift assays were performed using a Mini Opticon, Real Time PCR machine (Bio-Rad Laboratories) with 0.5 mg ml^-1 of protein diluted in 100 mM NaCl, 20 mM Tris pH 7.5, 100 μM CaCl2, with or without oligosaccharide in a total reaction volume of 25 μl. SYPRO Orange (Molecular Probes, CA) was used as a fluorescent probe detected at 530 nm. The temperature was raised using 1°C/minute steps from 25°C to 100°C and fluorescence readings were taken at each interval. […] A minimum of two independent measurements were performed for each condition

Molecule	ITC -∆H (rPVL [1]) [kcal/mol]	ITC T∆S (rPVL [1]) [kcal/mol]	Kd (rPVL [1])	Kd (rPVL [2]) [µM]	also measured
CC(=O)N[C@@H]1[C@@H](O)[C@H](O[C@@H]2O[C@H](CO)[C@@H](O[C@@H]3O[C@H](CO[C@H]4O[C@H](CO)[C@@H](O)[C@H](O)[C@@H]4O[C@@H]4O[C@H](CO)[C@@H](O)[C@H](O)[C@H]4NC(C)=O)[C@@H](O)[C@H](O[C@H]4O[C@H](CO)[C@@H](O)[C@H](O)[C@@H]4O[C@@H]4O[C@H](CO)[C@@H](O)[C@H](O)[C@H]4NC(C)=O)[C@@H]3O)[C@H](O)[C@H]2NC(C)=O)[C@@H](CO)O[C@H]1N=[N+]=[N-] [Biantennary N-glycan (2)]	3.27	2.82	34 µM and 34.4 µM	179	ITC n (number of binding sites per monomer) (rPVL [1]): 1.9 ± 0.6; ITC n (number of binding sites per monomer) (rPVL [1]; listed as biantennary heptasaccharide): two
CC(=O)N[C@H]1[C@H](O[C@H]2[C@@H](O)[C@@H](CO)OC(O)[C@@H]2NC(C)=O)O[C@H](CO)[C@H](O)[C@@H]1O (some centres unmarked) [GalNAcβ1-3GalNAc]					binding of rPVL on glycan array (in words) (rPVL [3]): minor intensity
CC(=O)N[C@H]1[C@H](O[C@H]2[C@H](O)[C@@H](NC(C)=O)[C@H](O[C@H]3[C@H](O)[C@@H](NC(C)=O)C(O)O[C@@H]3CO)O[C@@H]2CO)O[C@H](CO)[C@@H](O[C@@H]2O[C@H](CO)[C@@H](O[C@@H]3O[C@H](CO)[C@@H](O)[C@H](O)[C@H]3NC(C)=O)[C@H](O)[C@H]2NC(C)=O)[C@@H]1O (stereo partly drawn) [GlcNAc(β1-4GlcNAc)4, GlcNAcβ1-4GlcNAcβ1-4GlcNAcβ1-4GlcNAcβ1-4GlcNAc]				358	
CC(=O)N[C@@H]1[C@@H](O)[C@H](O)[C@@H](CO)O[C@H]1O [GlcNAc, N-acetylglucosamine]	9.85	-4.3	124 µM	132	ITC n (rPVL [1]): 5.0 ^b; Kd (native PVL): ~200 µM
CC(=O)N[C@H]1[C@H](O[C@H]2[C@@H](O)[C@@H](CO)OC(O)[C@@H]2O)O[C@H](CO)[C@@H](O)[C@@H]1O (some centres unmarked) [GlcNAcβ1-3Gal]	10.1	-4.66	110 µM	103	Tm of rPVL in the presence of ligand (rPVL [4]): 60 °C
CC(=O)N[C@H]1[C@H](O[C@H]2[C@@H](O)[C@@H](CO)O[C@@H](O[C@H]3[C@H](O)[C@@H](O)C(O)O[C@@H]3CO)[C@@H]2O)O[C@H](CO)[C@@H](O)[C@@H]1O (some centres unmarked) [GlcNAcβ1-3Galβ1-4Glc (LNT2), GlcNAcβ1-3Galβ1-4Glc]	9.97	-4.57	108 µM	71	ITC n (number of binding sites per monomer) (rPVL [1]): 5.0 ± 0.2; Kd (rPVL [2]; listed as lacto-N-triose): ~70 µM
CC(=O)N[C@H]1[C@H](O[C@H]2[C@H](O)[C@@H](NC(C)=O)C(O)O[C@@H]2CO)O[C@H](CO)[C@@H](O)[C@@H]1O (some centres unmarked) [GlcNAcβ1-4GlcNAc]	8.82	-3.49	122 µM	205	Tm of rPVL in the presence of ligand (rPVL [4]): 60 °C; binding of rPVL on glycan array (in words) (rPVL [3]): only weakly; ITC n (rPVL [1]): 5.0 ^b
O=C[C@H](O)[C@@H](O)[C@@H](O)[C@H](O)CO [galactose]					stabilization of rPVL by carbohydrate (in words) (rPVL [4]): non-binding
OC[C@H]1O[C@@](CO)(O[C@H]2O[C@H](CO)[C@@H](O)[C@H](O)[C@H]2O)[C@@H](O)[C@@H]1O [sucrose]					stabilization of rPVL by carbohydrate (in words) (rPVL [4]): non-binding
Galβ1-3GlcNAcβ1-3Galβ1-4Glc [Galβ1-3GlcNAcβ1-3Galβ1-4Glc (LNT)]					SPR Kd (rPVL [2]): No binding
